The source of these data is ChEMBL document CHEMBL1129673, “Antitumor activity of the R- and S-enantiomers of RS-2-[[hydroxy[[2-[ (octadecyloxy)methyl]tetrahydrofuran-2-yl]methoxy]-phosphinyl]oxy]-N, N,N,-trimethylethylaminium hydroxide inner salt” (1996).

The nature of experiment [1]: Antitumor activity against Abelson-8.1 cells at concentration 1 ug/mL and at 72 hr using Activated Macrophage Cytotoxicity assay. The experiment is classed as functional, Mus musculus.
The nature of experiment [2]: Antitumor activity against Abelson-8.1 cells at concentration 1 ug/mL and at 72 hr using direct cytotoxicity assay. The experiment is classed as functional, Mus musculus.
The nature of experiment [3]: Antitumor activity against Abelson-8.1 cells at concentration 3 ug/mL and at 72 hr using direct cytotoxicity assay. It is filed as functional, Mus musculus.
Experiment [4] is described as follows: Antitumor activity against Abelson-8.1 cells at concentration 5 ug/mL and at 72 hr using Activated Macrophage Cytotoxicity assay. It is filed as functional, Mus musculus.
Experiment [5] in a line: Antitumor activity against Abelson-8.1 cells at concentration 5 ug/mL and at 72 hr using direct cytotoxicity assay. It is filed as functional, Mus musculus.
The test system of experiment [6] is L1210. The experiment in a line: Antitumor activity against L1210 cells at concentration 1 ug/mL and at 72 hr using Activated Macrophage Cytotoxicity assay. The experiment is classed as functional, Mus musculus.
Experiment [7] has as its system L1210. As to the kind of experiment: Antitumor activity against L1210 cells at concentration 1 ug/mL and at 72 hr using direct cytotoxicity assay. It is filed as functional, Mus musculus.
Experiment [8] relates to L1210. The experiment in a line: Antitumor activity against L1210 cells at concentration 3 ug/mL and at 72 hr using direct cytotoxicity assay. It is filed as functional, Mus musculus.
The subject of experiment [9] is L1210. As to the kind of experiment: Antitumor activity against L1210 cells at concentration 5 ug/mL and at 72 hr using Activated Macrophage Cytotoxicity assay. It is filed as functional, Mus musculus.
In experiment [10] the test system is L1210. The experiment in a line: Antitumor activity against L1210 cells at concentration 5 ug/mL and at 72 hr using direct cytotoxicity assay. It is filed as functional, Mus musculus.
Experiment [11] has as its system Mus musculus. The experiment in a line: Antitumor activity against mouse macrophages after day 14 at dose 0.25 mg/kg by peroral administration. The experiment is classed as functional. The note with it: route oral.
Experiment [12] has as its system Mus musculus. As to the kind of experiment: Antitumor activity against mouse macrophages after day 21 at dose 0.25 mg/kg by peroral administration. The experiment is classed as functional. Particulars: route oral.
Experiment [13] relates to Mus musculus. The experiment in a line: Antitumor activity against mouse macrophages after day 28 at dose 0.25 mg/kg by peroral administration. It is filed as functional. Particulars: route oral.
Experiment [14] has as its system Mus musculus. As to the kind of experiment: Antitumor activity against mouse macrophages after day 7 at dose 0.25 mg/kg by peroral administration. The experiment is classed as functional. Particulars: route oral.
Experiment [15] concerns Mus musculus. As to the kind of experiment: Mouse survived after 28 days at 0.25 mg/kg; 2/10. It is filed as functional.
In experiment [16] the test system is P815. The experiment in a line: Antitumor activity against P815 cells at concentration 5 ug/mL and at 72 hr using direct cytotoxicity assay. It is filed as functional, Mus musculus.
In experiment [17] the test system is P815. As to the kind of experiment: Antitumor activity against P815 cells at concentration 1 ug/mL and at 72 hr using Activated Macrophage Cytotoxicity assay. The experiment is classed as functional, Mus musculus.
Experiment [18] has as its system P815. The experiment in a line: Antitumor activity against P815 cells at concentration 3 ug/mL and at 72 hr using Activated Macrophage Cytotoxicity assay. The experiment is classed as functional, Mus musculus.
Experiment [19] relates to P815. As to the kind of experiment: Antitumor activity against P815 cells at concentration 5 ug/mL and at 72 hr using Activated Macrophage Cytotoxicity assay. The experiment is classed as functional, Mus musculus.
Experiment [20] relates to P815. The experiment in a line: Antitumor activity against P815 cells at concentration 1 ug/mL and at 72 hr using direct cytotoxicity assay. The experiment is classed as functional, Mus musculus.
The subject of experiment [21] is P815. The experiment in a line: Antitumor activity against P815 cells at concentration 3 ug/mL and at 72 hr using direct cytotoxicity assay. The experiment is classed as functional, Mus musculus.
Experiment [22] concerns YAC-1. The experiment in a line: Antitumor activity against YAC-1 tumor cells at concentration 1 ug/mL and at 72 hr using direct cytotoxicity assay. The experiment is classed as functional, Mus musculus.
In experiment [23] the test system is YAC-1. As to the kind of experiment: Antitumor activity against YAC-1 tumor cells at concentration 3 ug/mL and at 72 hr using Activated Macrophage Cytotoxicity assay. The experiment is classed as functional, Mus musculus.
In experiment [24] the test system is YAC-1. The experiment in a line: Antitumor activity against YAC-1 tumor cells at concentration 3 ug/mL and at 72 hr using direct cytotoxicity assay. It is filed as functional, Mus musculus.
Experiment [25] deals with YAC-1. The experiment in a line: Antitumor activity against YAC-1 tumor cells at concentration 5 ug/mL and at 72 hr using direct cytotoxicity assay. It is filed as functional, Mus musculus.
The test system of experiment [26] is L1210. As to the kind of experiment: Antitumor activity against L1210 cells at concentration 3 ug/mL and at 72 hr using Activated Macrophage Cytotoxicity assay. It is filed as functional, Mus musculus.
A short description of experiment [27]: Antitumor activity against Abelson-8.1 cells at concentration 3 ug/mL and at 72 hr using Activated Macrophage Cytotoxicity assay. It is filed as functional, Mus musculus.
Experiment [28] relates to L1210. As to the kind of experiment: Antitumor activity against L1210 cells at concentration 3 ug/mL using Activated Macrophage Cytotoxicity assay. The experiment is classed as functional, Mus musculus.
The subject of experiment [29] is Mus musculus. As to the kind of experiment: Mouse survived after 28 days at 0.25 mg/kg; 8/10. It is filed as functional.
Experiment [30] deals with YAC-1. As to the kind of experiment: Antitumor activity against YAC-1 tumor cells at concentration 1 ug/mL and at 72 hr using Activated Macrophage Cytotoxicity assay. It is filed as functional, Mus musculus.
Experiment [31] has as its system YAC-1. As to the kind of experiment: Antitumor activity against YAC-1 tumor cells at concentration 5 ug/mL and at 72 hr using Activated Macrophage Cytotoxicity assay. The experiment is classed as functional, Mus musculus.
Experiment [32] deals with Mus musculus. As to the kind of experiment: Antitumor activity against mouse macrophages after day 14 at dose 2.50 mg/kg by peroral administration. It is filed as functional. The note with it: dose 2.5 mg/kg; route oral.
Experiment [33] deals with Mus musculus. As to the kind of experiment: Antitumor activity against mouse macrophages after day 21 at dose 2.50 mg/kg by peroral administration. The experiment is classed as functional. Particulars: dose 2.5 mg/kg; route oral.
Experiment [34] deals with Mus musculus. The experiment in a line: Antitumor activity against mouse macrophages after day 28 at dose 2.50 mg/kg by peroral administration. The experiment is classed as functional. The note with it: dose 2.5 mg/kg; route oral.
Experiment [35] deals with Mus musculus. As to the kind of experiment: Antitumor activity against mouse macrophages after day 7 at dose 2.50 mg/kg by peroral administration. The experiment is classed as functional. Particulars: dose 2.5 mg/kg; route oral.
In experiment [36] the test system is Mus musculus. As to the kind of experiment: Mouse survived after 28 days at 2.5 mg/kg; 8/10. It is filed as functional.
In experiment [37] the test system is L1210. As to the kind of experiment: Antitumor activity against L1210 cells at concentration 5 ug/mL and at 72 hr and at 72 hr using Activated Macrophage Cytotoxicity assay. The experiment is classed as functional, Mus musculus.
The subject of experiment [38] is Mus musculus. As to the kind of experiment: Mouse survived after 28 days at 2.5 mg/kg; 6/10. The experiment is classed as functional.
Experiment [39] relates to Mus musculus. As to the kind of experiment: Mouse survived after 28 days at 0.25 mg/kg; 3/10. The experiment is classed as functional.
Experiment [40] deals with Mus musculus. As to the kind of experiment: Mouse survived after 28 days at 2.5 mg/kg; 3/10. It is filed as functional.

As to `CCCCCCCCCCCCCCCCCCOCC1(COP(=O)([O-])OCC[N+](C)(C)C)CCCO1` (racemic; 8), the Viable cells is 0.5% in experiment [1]; 71% in experiment [2]; 6.8% in experiment [3]; 0.2% in experiment [4]; 4.6% in [5]; 5.3% in the experiment on L1210 [6]. The Viable cells amounted to 84% in the experiment on L1210 [7]; 24% in the experiment with L1210 [8]; 1.1% with L1210 [9]; 13% in the experiment with L1210 [10]; 2.8% in the experiment with P815 [16]; 3.1% with P815 [17]. The Viable cells in the experiment with P815 [18] worked out at 1.8%; in the experiment on P815 [19] it was 1.3%; in the experiment with P815 [20], 68%; in the experiment on P815 [21], 20%; in the experiment on YAC-1 [22] it was 92%; with YAC-1 [23], 1.6%. The Viable cells with YAC-1 [24] was 14%; with YAC-1 [25], 4.5%; in the experiment on L1210 [26] it was 1.4%. The Control amounted to 52% with Mus musculus [11], 21% in the experiment on Mus musculus [12], 37% in the experiment with Mus musculus [13] and 90% with Mus musculus [14]. This molecule also had a Survivors with Mus musculus [15] of 2.

Consider `CCCCCCCCCCCCCCCCCCOCC1(COP(=O)([O-])OCC[N+](C)(C)C)CCCO1` (racemic; 9), for which the Viable cells in experiment [1] is listed as 0.8%; in experiment [2], 8.6%; in [27], 0.3%; in [3], 2.1%; in [4], 0.4%; in experiment [5], 1.8%. The Viable cells is recorded as 3.4% in the experiment on L1210 [6]; 55% in the experiment on L1210 [7]; 7.7% with L1210 [8]; 0.6% in the experiment with L1210 [28]; 0.2% in the experiment with L1210 [9]; 3.2% with L1210 [10]. Besides, the Viable cells was 2.6% in the experiment on P815 [16]; 2.8% in the experiment on P815 [17]; 1.1% with P815 [18]; 0.3% in the experiment with P815 [19]; 16% in the experiment with P815 [20]; 7% in the experiment on P815 [21]. Further, the Viable cells with YAC-1 [30] is listed as 11%; in the experiment on YAC-1 [22] it was 60%; in the experiment with YAC-1 [23], 2.3%; in the experiment on YAC-1 [24], 22%; in the experiment with YAC-1 [31], 0.9%; in the experiment on YAC-1 [25], 9%. Besides, the Control in the experiment on Mus musculus [11] was 19%; with Mus musculus [12], 6%; in the experiment on Mus musculus [13], 11%; in the experiment on Mus musculus [14] it was 66%. In addition, the Survivors in the experiment with Mus musculus [29] is recorded as 8.

For `CCCCCCCCCCCCCCCCCCOC[C@]1(COP(=O)([O-])OCC[N+](C)(C)C)CCCO1`, the Control with Mus musculus [32] is recorded as 28%; in the experiment with Mus musculus [33] it was 8%; in the experiment on Mus musculus [34], 13%; with Mus musculus [35], 70%. In addition, the Survivors with Mus musculus [36] amounted to 8.

For `CCCCCCCCCCCCCCCCCCOCC1(COP(=O)([O-])OCC[N+](C)(C)C)CCCO1` (racemic; 5), the Viable cells in [1] worked out at 0.4%; in experiment [2], 32%; in experiment [27], 0.2%; in experiment [3], 2.6%; in experiment [4], 0.1%; in [5], 2%. Further, the Viable cells turned out to be 9.4% in the experiment with L1210 [6]; 100% with L1210 [7]; 20% in the experiment on L1210 [8]; 1.6% in the experiment on L1210 [28]; 0.9% in the experiment with L1210 [37]; 8.6% in the experiment on L1210 [10]. Also, the Viable cells amounted to 5.3% in the experiment on P815 [16]; 3.4% in the experiment with P815 [17]; 0.7% in the experiment with P815 [18]; 0.6% in the experiment with P815 [19]; 60% in the experiment on P815 [20]; 13% in the experiment with P815 [21]. Also, the Viable cells is given as 16% in the experiment with YAC-1 [30]; 81% in the experiment with YAC-1 [22]; 2.5% in the experiment on YAC-1 [23]; 26% with YAC-1 [24]; 1.2% with YAC-1 [31]; 8.9% in the experiment on YAC-1 [25]. Also, the Control in the experiment with Mus musculus [11] is recorded as 47%; in the experiment with Mus musculus [32] it was 38%; with Mus musculus [12], 20%; in the experiment with Mus musculus [33], 14%; in the experiment on Mus musculus [13], 32%; in the experiment on Mus musculus [34], 21%. Besides, the Control stood at 82% with Mus musculus [14] and 76% with Mus musculus [35]. Also, the Survivors with Mus musculus [38] is 6; in the experiment with Mus musculus [39], 3.

Regarding `CCCCCCCCCCCCCCCCCCOC[C@@]1(COP(=O)([O-])OCC[N+](C)(C)C)CCCO1`, the Control worked out at 53% in the experiment with Mus musculus [32], 21% in the experiment with Mus musculus [33], 32% in the experiment with Mus musculus [34] and 85% in the experiment with Mus musculus [35]. Besides, the Survivors in the experiment on Mus musculus [40] was 3.
